Results from ChEMBL document CHEMBL2440071, “Antimycobacterial and herbicidal activity of ring-substituted 1-hydroxynaphthalene-2-carboxanilides” (Bioorg Med Chem, 2013).
≈ marks a conversion by molar mass, not a printed value. Calls of active or inactive are those of the source. The rule behind the calls is not given here.

What was measured:
[1] = Cytotoxicity against human THP1 cells after 24 hrs by lactate dehydrogenase assay; type: cell-based; details: THP-1 cells, read-out: LD50
[2] = test system: Mycolicibacterium smegmatis; assay: Antimycobacterial activity against Mycobacterium smegmatis ATCC 700084 after 3 days by two-fold serial dilution method; type: functional; details: ATCC 700084, 72 h
Mycobacterium marinum [3] = assay: Antimycobacterial activity against Mycobacterium marinum CAMP 5644 after 21 days by two-fold serial dilution method; type: functional; details: CAMP 5644, 504 h
[4] = Inhibition of PS2 in spinach chloroplasts assessed as photoreduction of DCPIP incubated for 2 mins in dark condition prior to testing by spectrophotometry; parameters: species or system Spinacia oleracea
Mycobacterium kansasii = assay: Antimycobacterial activity against Mycobacterium kansasii DSM 44162 after 7 days by two-fold serial dilution method; type: functional; details: DSM 44162, 168 h
[5] = Lipophilicity, log K of the compound by RP-HPLC analysis; type: physicochemical
Spinacia oleracea [6] = assay: Inhibition of PS2 in spinach chloroplasts assessed as photoreduction of DCPIP measured remaining activity incubated for 2 mins in dark condition prior to testing by spectrophotometry relative to control; values are per cent of control; parameters: concentration or dose not given beside the values
Spinacia oleracea [7] = assay: Inhibition of PS2 in spinach chloroplasts assessed as photoreduction of DCPIP measured remaining activity incubated for 2 mins in dark condition prior to testing by spectrophotometry in presence of diphenylcarbazide relative to control; values are per cent of control; parameters: concentration or dose not given beside the values
Mycobacterium marinum [8] = assay: Ratio of isoniazid MIC to compound MIC for Mycobacterium marinum CAMP 5644; type: functional
Spinacia oleracea [9] = assay: Inhibition of PS2 in spinach chloroplasts assessed as reduction in chlorophyll a fluorescence emission at 0.1 to 1.2 mmol/L by fluorescence spectrophotometry
[10] = test system: Mycolicibacterium smegmatis; assay: Ratio of isoniazid MIC to compound MIC for Mycobacterium smegmatis ATCC 700084; type: functional

Molecule CC[C@@]1(O)C(=O)OCc2c1cc1n(c2=O)Cc2cc3ccccc3nc2-1 [CAMPTOTHECIN] has a CC50 at 24 h [1] of 0.16 µM.

In the case of NNC(=O)c1ccncc1 [ISONIAZID], the MIC [2] is reported as 117 µM (≈ 16 µg/mL) and the MIC (Mycobacterium marinum [3]) is reported as 467 µM (≈ 64 µg/mL).

In the case of O=C(Nc1cccc(Br)c1)c1ccc2ccccc2c1O, the CC50 at 24 h [1] is reported as > 20 µM, the IC50 [4] is reported as 8.2 µM and the MIC [2] is reported as > 748 µM. For the same molecule, the MIC (Mycobacterium kansasii) was > 748 µM, the MIC (Mycobacterium marinum [3]) was > 748 µM and the “log K” value [5] was 1.1784. For the same molecule, the residual activity (Spinacia oleracea [6]) was 10% and the residual activity (Spinacia oleracea [7]) was 95%.

With COc1ccc(NC(=O)c2ccc3ccccc3c2O)cc1 the IC50 [4] was 79.5 µM, the MIC [2] was > 873 µM and the MIC (Mycobacterium kansasii) was > 873 µM. For the same molecule, the MIC (Mycobacterium marinum [3]) was > 873 µM, the “log K” value [5] was 1.1882 and the residual activity (Spinacia oleracea [6]) was 10%. The residual activity (Spinacia oleracea [7]) was 95%.

In the case of O=C(Nc1cccc(F)c1)c1ccc2ccccc2c1O, the Ratio (Mycobacterium marinum [8]) is reported as 16, the CC50 at 24 h [1] is reported as > 10 µM and the IC50 [4] is reported as 15.6 µM. It also gave an MIC [2] of 910 µM (≈ 256 µg/mL), an MIC (Mycobacterium kansasii) of 28.4 µM (≈ 7.99 µg/mL) and an MIC (Mycobacterium marinum [3]) of 28.4 µM (≈ 7.99 µg/mL). The “log K” value [5] was 1.0763, the residual activity (Spinacia oleracea [6]) was 10% and the residual activity (Spinacia oleracea [7]) was 95%.

In the case of O=C(Nc1ccccc1F)c1ccc2ccccc2c1O, the IC50 [4] is reported as 57 µM, the MIC [2] is reported as 228 µM (≈ 64.1 µg/mL) and the MIC (Mycobacterium kansasii) is reported as > 910 µM. For the same molecule, the MIC (Mycobacterium marinum [3]) was 56.8 µM (≈ 16 µg/mL), the “log K” value [5] was 0.8296 and the residual activity (Spinacia oleracea [6]) was 10%. The residual activity (Spinacia oleracea [7]) was 95%.

In the case of O=C(Nc1cccc(Cl)c1)c1ccc2ccccc2c1O, the CC50 at 24 h [1] is reported as > 20 µM, the IC50 [4] is reported as 7.9 µM and the MIC [2] is reported as > 860 µM. The MIC (Mycobacterium kansasii) was 26.8 µM (≈ 7.98 µg/mL), the MIC (Mycobacterium marinum [3]) was 107 µM (≈ 31.9 µg/mL) and the “log K” value [5] was 1.1615. For the same molecule, the residual activity (Spinacia oleracea [6]) was 10% and the residual activity (Spinacia oleracea [7]) was 95%.

With O=C(Nc1ccc(Cl)cc1)c1ccc2ccccc2c1O the CC50 at 24 h [1] was > 20 µM, the IC50 [4] was 10.8 µM and the MIC [2] was 215 µM (≈ 64 µg/mL). For the same molecule, the MIC (Mycobacterium kansasii) was 26.8 µM (≈ 7.98 µg/mL), the MIC (Mycobacterium marinum [3]) was 215 µM (≈ 64 µg/mL) and the “log K” value [5] was 1.1314. It also gave a residual activity (Spinacia oleracea [6]) of 10% and a residual activity (Spinacia oleracea [7]) of 95%.

In the case of O=C(Nc1ccccc1[N+](=O)[O-])c1ccc2ccccc2c1O, the MIC [2] is reported as > 830 µM, the MIC (Mycobacterium kansasii) is reported as > 830 µM and the MIC (Mycobacterium marinum [3]) is reported as > 830 µM. For the same molecule, the “log K” value [5] was 0.5014, the residual activity (Spinacia oleracea [6]) was 10% and the residual activity (Spinacia oleracea [7]) was 95%.

For O=C(Nc1ccc([N+](=O)[O-])cc1)c1ccc2ccccc2c1O, the IC50 [4] was 24 µM, the MIC [2] was > 830 µM and the MIC (Mycobacterium kansasii) was 51.9 µM (≈ 16 µg/mL). For the same molecule, the MIC (Mycobacterium marinum [3]) was 104 µM (≈ 32.1 µg/mL), the “log K” value [5] was 0.5298 and the residual activity (Spinacia oleracea [6]) was 10%. The residual activity (Spinacia oleracea [7]) was 95%.

For O=C(Nc1ccccc1C(F)(F)F)c1ccc2ccccc2c1O, the inhibition (Spinacia oleracea [9]) was “Active”, the CC50 at 24 h [1] was > 20 µM and the IC50 [4] was 126 µM. The MIC [2] was > 773 µM, the MIC (Mycobacterium kansasii) was > 773 µM and the MIC (Mycobacterium marinum [3]) was 96.6 µM (≈ 32 µg/mL). For the same molecule, the “log K” value [5] was 0.6899, the residual activity (Spinacia oleracea [6]) was 10% and the residual activity (Spinacia oleracea [7]) was 95%.

In the case of O=C(Nc1ccc(F)cc1)c1ccc2ccccc2c1O, the CC50 at 24 h [1] is reported as > 10 µM, the IC50 [4] is reported as 20.3 µM and the MIC [2] is reported as > 910 µM. The MIC (Mycobacterium kansasii) was 14.2 µM (≈ 3.99 µg/mL), the MIC (Mycobacterium marinum [3]) was 114 µM (≈ 32.1 µg/mL) and the “log K” value [5] was 1.0533. It also gave a residual activity (Spinacia oleracea [6]) of 10% and a residual activity (Spinacia oleracea [7]) of 95%.

For O=C(Nc1cccc(C(F)(F)F)c1)c1ccc2ccccc2c1O, the CC50 at 24 h [1] was 1 µM, the IC50 [4] was 5.3 µM and the MIC [2] was > 748 µM. The MIC (Mycobacterium kansasii) was > 748 µM, the MIC (Mycobacterium marinum [3]) was 46.7 µM (≈ 15.5 µg/mL) and the “log K” value [5] was 1.127. It also gave a residual activity (Spinacia oleracea [6]) of 10% and a residual activity (Spinacia oleracea [7]) of 95%.

In the case of O=C(Nc1ccccc1Cl)c1ccc2ccccc2c1O, the IC50 [4] is reported as 29.4 µM, the MIC [2] is reported as 860 µM (≈ 256 µg/mL) and the MIC (Mycobacterium kansasii) is reported as 860 µM (≈ 256 µg/mL). For the same molecule, the MIC (Mycobacterium marinum [3]) was 107 µM (≈ 31.9 µg/mL), the “log K” value [5] was 0.8764 and the residual activity (Spinacia oleracea [6]) was 10%. The residual activity (Spinacia oleracea [7]) was 95%.

In the case of O=C(Nc1ccc(Br)cc1)c1ccc2ccccc2c1O, the Ratio [10] is reported as 2.5, the CC50 at 24 h [1] is reported as > 20 µM and the IC50 [4] is reported as 9.6 µM. It also gave an MIC [2] of 46.7 µM (≈ 16 µg/mL), an MIC (Mycobacterium kansasii) of 23.3 µM (≈ 7.97 µg/mL) and an MIC (Mycobacterium marinum [3]) of 46.7 µM (≈ 16 µg/mL). For the same molecule, the “log K” value [5] was 1.1224, the residual activity (Spinacia oleracea [6]) was 10% and the residual activity (Spinacia oleracea [7]) was 95%.

In the case of COc1ccccc1NC(=O)c1ccc2ccccc2c1O, the IC50 [4] is reported as 200 µM, the MIC [2] is reported as > 873 µM and the MIC (Mycobacterium kansasii) is reported as > 873 µM. The MIC (Mycobacterium marinum [3]) was > 873 µM, the “log K” value [5] was 1.4716 and the residual activity (Spinacia oleracea [6]) was 10%. It also gave a residual activity (Spinacia oleracea [7]) of 95%.

With Cc1ccccc1NC(=O)c1ccc2ccccc2c1O the Ratio (Mycobacterium marinum [8]) was 16, the CC50 at 24 h [1] was > 20 µM and the IC50 [4] was 62.8 µM. The MIC [2] was 231 µM (≈ 64.1 µg/mL), the MIC (Mycobacterium kansasii) was 115 µM (≈ 31.9 µg/mL) and the MIC (Mycobacterium marinum [3]) was 28.8 µM (≈ 7.99 µg/mL). The “log K” value [5] was 1.1176, the residual activity (Spinacia oleracea [6]) was 10% and the residual activity (Spinacia oleracea [7]) was 95%.

With O=C(Nc1ccccc1)c1ccc2ccccc2c1O the CC50 at 24 h [1] was > 20 µM, the IC50 [4] was 31.3 µM and the MIC [2] was 243 µM (≈ 64 µg/mL). For the same molecule, the MIC (Mycobacterium kansasii) was 15.2 µM (≈ 4 µg/mL), the MIC (Mycobacterium marinum [3]) was 60.7 µM (≈ 16 µg/mL) and the “log K” value [5] was 1.2302. It also gave a residual activity (Spinacia oleracea [6]) of 10% and a residual activity (Spinacia oleracea [7]) of 95%.

For O=C(Nc1cccc([N+](=O)[O-])c1)c1ccc2ccccc2c1O, the IC50 [4] was 19.9 µM, the MIC [2] was > 830 µM and the MIC (Mycobacterium kansasii) was > 830 µM. The MIC (Mycobacterium marinum [3]) was > 830 µM, the “log K” value [5] was 0.6609 and the residual activity (Spinacia oleracea [6]) was 10%. The residual activity (Spinacia oleracea [7]) was 95%.

In the case of Cc1cccc(NC(=O)c2ccc3ccccc3c2O)c1, the Ratio [10] is reported as 2.5, the Ratio (Mycobacterium marinum [8]) is reported as 16 and the CC50 at 24 h [1] is reported as > 20 µM. It also gave an IC50 [4] of 20 µM, an MIC [2] of 57.7 µM (≈ 16 µg/mL) and an MIC (Mycobacterium kansasii) of 28.8 µM (≈ 7.99 µg/mL). For the same molecule, the MIC (Mycobacterium marinum [3]) was 28.8 µM (≈ 7.99 µg/mL), the “log K” value [5] was 1.4254 and the residual activity (Spinacia oleracea [6]) was 10%. The residual activity (Spinacia oleracea [7]) was 95%.

CN(C)C(=O)Nc1ccc(Cl)c(Cl)c1 [DCMU] gave an IC50 [4] of 1.9 µM.

With O=C(Nc1ccccc1Br)c1ccc2ccccc2c1O the IC50 [4] was 61.9 µM, the MIC [2] was > 748 µM and the MIC (Mycobacterium kansasii) was > 748 µM. For the same molecule, the MIC (Mycobacterium marinum [3]) was > 748 µM, the “log K” value [5] was 0.9234 and the residual activity (Spinacia oleracea [6]) was 10%. It also gave a residual activity (Spinacia oleracea [7]) of 95%.

For O=C(Nc1ccc(C(F)(F)F)cc1)c1ccc2ccccc2c1O, the CC50 at 24 h [1] was 0.6 µM, the IC50 [4] was 36.5 µM and the MIC [2] was > 748 µM. For the same molecule, the MIC (Mycobacterium kansasii) was 23.3 µM (≈ 7.72 µg/mL), the MIC (Mycobacterium marinum [3]) was 187 µM (≈ 62 µg/mL) and the “log K” value [5] was 1.1158. For the same molecule, the residual activity (Spinacia oleracea [6]) was 10% and the residual activity (Spinacia oleracea [7]) was 95%.

For COc1cccc(NC(=O)c2ccc3ccccc3c2O)c1, the IC50 [4] was 23.5 µM, the MIC [2] was > 873 µM and the MIC (Mycobacterium kansasii) was > 873 µM. For the same molecule, the MIC (Mycobacterium marinum [3]) was 54.5 µM (≈ 16 µg/mL), the “log K” value [5] was 1.2849 and the residual activity (Spinacia oleracea [6]) was 10%. For the same molecule, the residual activity (Spinacia oleracea [7]) was 95%.

For Cc1ccc(NC(=O)c2ccc3ccccc3c2O)cc1, the IC50 [4] was 28.7 µM, the MIC [2] was 923 µM (≈ 256 µg/mL) and the MIC (Mycobacterium kansasii) was 57.7 µM (≈ 16 µg/mL). The MIC (Mycobacterium marinum [3]) was 115 µM (≈ 31.9 µg/mL), the “log K” value [5] was 1.4008 and the residual activity (Spinacia oleracea [6]) was 10%. It also gave a residual activity (Spinacia oleracea [7]) of 95%.
